In paper PMC4907642 (Journal of medicinal chemistry, 2015):

molecular target: EML4-ALK G1202R transformed Ba/F3 cells (Homo sapiens, UniProt Q9HC35+Q9UM73, G1202R); settings: 1 µM, result in words
Sequence (Q9UM73 1058-1620 G1202R limits assumed, one chain of several): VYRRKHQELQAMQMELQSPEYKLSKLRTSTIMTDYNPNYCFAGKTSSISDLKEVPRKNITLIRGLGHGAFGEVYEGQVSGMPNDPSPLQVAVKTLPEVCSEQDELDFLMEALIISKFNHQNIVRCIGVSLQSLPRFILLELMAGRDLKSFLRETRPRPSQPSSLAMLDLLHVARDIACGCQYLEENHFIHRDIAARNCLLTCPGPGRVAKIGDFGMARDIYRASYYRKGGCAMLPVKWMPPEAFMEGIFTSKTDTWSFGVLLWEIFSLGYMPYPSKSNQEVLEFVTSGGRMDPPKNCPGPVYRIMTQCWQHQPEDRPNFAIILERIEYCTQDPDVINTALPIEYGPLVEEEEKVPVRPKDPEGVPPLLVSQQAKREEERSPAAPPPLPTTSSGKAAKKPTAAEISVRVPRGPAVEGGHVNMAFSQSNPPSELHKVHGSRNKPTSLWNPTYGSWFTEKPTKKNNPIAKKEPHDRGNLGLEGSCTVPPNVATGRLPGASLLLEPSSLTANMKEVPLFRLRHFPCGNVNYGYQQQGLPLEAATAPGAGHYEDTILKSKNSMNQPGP

Structure (SMILES) | single point inhibition of the G1202R mutant
CCc1cc2c(cc1-c1cnn(C)c1)C(C)(C)c1[nH]c3cc(C#N)ccc3c1C2=O [Compound 7, 9-ethyl-6,6-dimethyl-8-(1-methyl-1H-pyrazol-4-yl)-11-oxo-6,11-dihydro-5H-benzo[b]carbazole-3-carbonitrile] | quite potent
CCc1cc2c(cc1-c1cn[nH]c1)C(C)(C)c1[nH]c3cc(C#N)ccc3c1C2=O [Compound 8, 9-ethyl-6,6-dimethyl-11-oxo-8-(1H-pyrazol-4-yl)-6,11-dihydro-5H-benzo[b]carbazole-3-carbonitrile] | quite potent
CCc1cc2c(cc1-c1cc[nH]n1)C(C)(C)c1[nH]c3cc(C#N)ccc3c1C2=O [Compound 9, 9-ethyl-6,6-dimethyl-11-oxo-8-(1H-pyrazol-3-yl)-6,11-dihydro-5H-benzo[b]carbazole-3-carbonitrile] | quite potent
CCc1cc2c(cc1-c1ccoc1)C(C)(C)c1[nH]c3cc(C#N)ccc3c1C2=O [Compound 11, 9-ethyl-8-(furan-3-yl)-6,6-dimethyl-11-oxo-6,11-dihydro-5H-benzo[b]carbazole-3-carbonitrile] | much less inhibitory activity
CCc1cc2c(cc1-c1cccs1)C(C)(C)c1[nH]c3cc(C#N)ccc3c1C2=O [Compound 12, 9-ethyl-6,6-dimethyl-11-oxo-8-(thiophen-2-yl)-6,11-dihydro-5H-benzo[b]carbazole-3-carbonitrile] | much less inhibitory activity
CCc1cc2c(cc1N1CCC(N(C)C)CC1)C(C)(C)c1[nH]c3cc(C#N)ccc3c1C2=O [Compound 17, 8-(4-(dimethylamino)piperidin-1-yl)-9-ethyl-6,6-dimethyl-11-oxo-6,11-dihydro-5H-benzo[b]carbazole-3-carbonitrile] | potent inhibition
CCc1cc2c(cc1N1CCN(C)CC1)C(C)(C)c1[nH]c3cc(C#N)ccc3c1C2=O [Compound 19, 9-ethyl-6,6-dimethyl-8-(4-methylpiperazin-1-yl)-11-oxo-6,11-dihydro-5H-benzo[b]carbazole-3-carbonitrile] | potent inhibition
CCc1cc2c(cc1C#N)C(C)(C)c1[nH]c3cc(C#N)ccc3c1C2=O [Compound 21, 9-ethyl-6,6-dimethyl-11-oxo-6,11-dihydro-5H-benzo[b]carbazole-3,8-dicarbonitrile] | much less potent
CCc1cc2c(cc1[C@@H](O)CO)C(C)(C)c1[nH]c3cc(C#N)ccc3c1C2=O [Compound 22, (R)-8-(1,2-dihydroxyethyl)-9-ethyl-6,6-dimethyl-11-oxo-6,11-dihydro-5H-benzo[b]carbazole-3-carbonitrile] | much less potent
CCc1cc2c(cc1[C@H](O)CO)C(C)(C)c1[nH]c3cc(C#N)ccc3c1C2=O [Compound 23, (S)-8-(1,2-dihydroxyethyl)-9-ethyl-6,6-dimethyl-11-oxo-6,11-dihydro-5H-benzo[b]carbazole-3-carbonitrile] | much less potent
CCc1cc2c(cc1C(=O)O)C(C)(C)c1[nH]c3cc(C#N)ccc3c1C2=O [Compound 24, 3-cyano-9-ethyl-6,6-dimethyl-11-oxo-6,11-dihydro-5H-benzo[b]carbazole-8-carboxylic acid] | much less potent
CCc1cc2c(cc1/C=C/CN1CCOCC1)C(C)(C)c1[nH]c3cc(C#N)ccc3c1C2=O [Compound 25, (E)-9-ethyl-6,6-dimethyl-8-(3-morpholinoprop-1-en-1-yl)-11-oxo-6,11-dihydro-5H-benzo[b]carbazole-3-carbonitrile] | no activity
CCc1cc2c(cc1-c1cnn(C(C)(C)C(=O)N(C)C)c1)C(C)(C)c1[nH]c3cc(C#N)ccc3c1C2=O [Compound 35, 2-(4-(3-cyano-9-ethyl-6,6-dimethyl-11-oxo-6,11-dihydro-5H-benzo[b]carbazol-8-yl)-1H-pyrazol-1-yl)-N,N,2-trime-thylpropanamide] | quite potent
CCc1cc2c(cc1-c1cnn(C(=O)N(C)C)c1)C(C)(C)c1[nH]c3cc(C#N)ccc3c1C2=O [Compound 36, 4-(3-cyano-9-ethyl-6,6-dimethyl-11-oxo-6,11-dihydro-5H-benzo[b]carbazol-8-yl)-N,N-dimethyl-1H-pyrazole-1-carboxamide] | quite potent

tested on: panel of 456 kinases; settings: 1 µM

Structure (SMILES) | KINOMEscan interactions mapped
CCc1cc2c(cc1-c1cnn(CCCN(C)C)c1)C(C)(C)c1[nH]c3cc(C#N)ccc3c1C2=O [Compound 32, 8-(1-(3-(dimethylamino)propyl)-1H-pyrazol-4-yl)-9-ethyl-6,6-dimethyl-11-oxo-6,11-dihydro-5H-benzo[b]carbazole-3-carbonitrile] | 39
